Measurements reported in patent US12421207B2 (CMG Pharmaceutical Co., Ltd., priority 2022, dated 2025).
Read-outs that look alike come from different tables or passages of the source. Blank lines part the entries; values can stand above or below the compound they belong to.

Tests used:
HCC827/OR cells = assay: Cell viability assay (CellTiter-Glo 2.0), osimertinib-resistant HCC827/OR cells; format: cell-based, human
Text: (§1) To explore c-MET and AXL mechanisms of EGFR TKI resistance, resistant cells of the EGFR TKI hypersensitive EGFR exon 19 mutant NSCLC cell line, HCC827 and PC9 were generated by exposing these cells to increasing concentrations of EGFR TKI for over 3 months.
(§2) Gefitinib-resistant cells were referred to as HCC827/GR. […] Osimertinib-resistant cells were referred to as HCC827/OR.

MER = target: T1, MER (Homo sapiens, UniProt Q12866); assay: Enzymatic kinase assay (ADP-Glo), MER; format: biochemical; settings: poly (Glu4, Tyr1) substrate, 60 min room temperature, ADP-GLO luminescence
T1 sequence (Q12866 21-999): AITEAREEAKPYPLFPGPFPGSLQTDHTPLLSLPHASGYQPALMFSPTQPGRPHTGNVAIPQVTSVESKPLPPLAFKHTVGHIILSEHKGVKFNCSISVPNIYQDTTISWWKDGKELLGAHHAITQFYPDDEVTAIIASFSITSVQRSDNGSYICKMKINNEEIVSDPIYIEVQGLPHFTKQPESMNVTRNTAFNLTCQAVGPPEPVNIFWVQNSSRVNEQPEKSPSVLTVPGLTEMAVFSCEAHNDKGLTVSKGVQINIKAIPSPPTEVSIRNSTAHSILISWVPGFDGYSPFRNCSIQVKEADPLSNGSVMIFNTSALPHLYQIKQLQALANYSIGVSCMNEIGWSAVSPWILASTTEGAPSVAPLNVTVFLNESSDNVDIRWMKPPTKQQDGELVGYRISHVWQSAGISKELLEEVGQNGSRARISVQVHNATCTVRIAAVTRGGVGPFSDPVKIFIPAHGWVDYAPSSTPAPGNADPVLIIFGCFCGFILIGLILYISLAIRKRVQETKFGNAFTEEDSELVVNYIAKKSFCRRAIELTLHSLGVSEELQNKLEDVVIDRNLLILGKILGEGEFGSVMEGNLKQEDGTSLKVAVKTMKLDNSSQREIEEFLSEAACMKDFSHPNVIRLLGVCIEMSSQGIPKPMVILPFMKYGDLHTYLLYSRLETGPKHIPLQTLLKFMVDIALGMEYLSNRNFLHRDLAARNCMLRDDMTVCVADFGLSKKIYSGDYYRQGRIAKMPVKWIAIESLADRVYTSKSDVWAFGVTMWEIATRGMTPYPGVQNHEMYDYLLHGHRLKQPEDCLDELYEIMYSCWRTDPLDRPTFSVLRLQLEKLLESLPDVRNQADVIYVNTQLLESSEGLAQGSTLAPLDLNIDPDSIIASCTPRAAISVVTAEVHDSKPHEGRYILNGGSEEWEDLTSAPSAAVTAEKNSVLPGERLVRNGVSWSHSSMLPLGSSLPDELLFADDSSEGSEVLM
Method: (§3) All the kinase reactions were performed in 5 μL using tyrosine kinase buffer with 0.2 μg/μL poly (Glu4, Tyr1) substrate, 10 µM ATP, serial dilution of the inhibitor, and incubated at room temperature for 60 min. After the indicated incubation times, 5 μL ADP-GLO™ reagent (Promega, Madison, WI) was added to the reactions and the plate was incubated at room temperature for 40 min. Then, 10 μL of kinase detection reagent was added and after an incubation time of 40 min, luminescence was recorded and IC50 values were determined (Table 1). All 384-well assay plates were read using a GLOMAX™ Discover Microplate Luminometer from Promega (Madison, WI). To plot, analyze the data and calculate all kinase reaction biochemical values, both Microsoft Excel and Prism from GraphPad 7 Software (La Jolla, CA) were used.
All the kinase reactions were performed in 5 μL using tyrosine kinase buffer with 0.2 μg/μL poly (Glu4, Tyr1) substrate, 10 µM ATP, serial dilution of the inhibitor, and incubated at room temperature for 60 min. After the indicated incubation times, 5 μL ADP-GLO™ reagent (Promega, Madison, WI) was added to the reactions and the plate was incubated at room temperature for 40 min. […] All 384-well assay plates were read using a GLOMAX™ Discover Microplate Luminometer from Promega (Madison, WI). […]

PC9/ER cells = assay: Cell viability assay (CellTiter-Glo 2.0), erlotinib-resistant PC9/ER cells; format: cell-based
Text: as §1, §2

HCC827/GR cells = assay: Cell viability assay (CellTiter-Glo 2.0), gefitinib-resistant HCC827/GR cells; format: cell-based, human; settings: 72 h drug treatment, read-out: Relative cell viability, IC50 HCC827GR
How it was run: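 Gefitinib-resistant HCC827 cells, derived by over 3 months' escalating EGFR TKI exposure, seeded at 1,000 cells/well. Treated 72 h with a 10-point dose range from 1 nM to 10,000 nM. Viability read by CellTiter-Glo 2.0 luminescence.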

HCC827/ER cells = assay: Cell viability assay (CellTiter-Glo 2.0), erlotinib-resistant HCC827/ER cells; format: cell-based, human; settings: 72 h drug treatment, read-out: Relative cell viability, IC50 HCC827ER
Text: as §1, §2

AXL = target: T2, AXL (Homo sapiens, UniProt P30530); assay: Enzymatic kinase assay (ADP-Glo), AXL; format: biochemical; settings: poly (Glu4, Tyr1) substrate, 60 min room temperature, ADP-GLO luminescence
T2 sequence (P30530 26-894): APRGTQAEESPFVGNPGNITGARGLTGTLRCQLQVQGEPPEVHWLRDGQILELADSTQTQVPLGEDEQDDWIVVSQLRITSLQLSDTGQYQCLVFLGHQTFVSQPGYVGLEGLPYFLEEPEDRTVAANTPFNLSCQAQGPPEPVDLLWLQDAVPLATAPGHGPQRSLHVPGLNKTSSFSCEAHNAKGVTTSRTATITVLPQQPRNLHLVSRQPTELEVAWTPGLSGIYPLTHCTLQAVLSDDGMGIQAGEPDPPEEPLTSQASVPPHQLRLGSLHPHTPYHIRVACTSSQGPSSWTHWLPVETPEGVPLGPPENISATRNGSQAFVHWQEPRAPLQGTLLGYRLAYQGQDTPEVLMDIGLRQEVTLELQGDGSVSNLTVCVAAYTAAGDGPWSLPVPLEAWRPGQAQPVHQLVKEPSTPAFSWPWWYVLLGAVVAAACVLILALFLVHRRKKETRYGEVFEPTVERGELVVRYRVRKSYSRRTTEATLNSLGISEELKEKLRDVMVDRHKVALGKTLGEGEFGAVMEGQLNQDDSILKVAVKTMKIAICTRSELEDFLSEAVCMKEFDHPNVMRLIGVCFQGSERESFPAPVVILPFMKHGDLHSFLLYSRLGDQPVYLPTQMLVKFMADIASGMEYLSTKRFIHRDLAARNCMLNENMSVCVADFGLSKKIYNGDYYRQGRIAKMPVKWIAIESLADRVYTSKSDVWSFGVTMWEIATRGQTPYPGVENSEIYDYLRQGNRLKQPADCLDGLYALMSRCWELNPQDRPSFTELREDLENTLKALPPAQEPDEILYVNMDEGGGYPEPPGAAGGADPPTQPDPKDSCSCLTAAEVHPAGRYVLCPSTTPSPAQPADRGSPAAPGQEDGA
Method: as §3, with “Then, 10 μL of kinase detection reagent was added and after an incubation time of 40 min, luminescence was recorded and IC50 values were determined (Table 1).” left out

c-MET = c-MET (Homo sapiens, UniProt P08581); assay: Enzymatic kinase assay (ADP-Glo), c-MET; format: biochemical; settings: poly (Glu4, Tyr1) substrate, 60 min room temperature, ADP-GLO luminescence
Chain of c-MET (P08581 25-1390): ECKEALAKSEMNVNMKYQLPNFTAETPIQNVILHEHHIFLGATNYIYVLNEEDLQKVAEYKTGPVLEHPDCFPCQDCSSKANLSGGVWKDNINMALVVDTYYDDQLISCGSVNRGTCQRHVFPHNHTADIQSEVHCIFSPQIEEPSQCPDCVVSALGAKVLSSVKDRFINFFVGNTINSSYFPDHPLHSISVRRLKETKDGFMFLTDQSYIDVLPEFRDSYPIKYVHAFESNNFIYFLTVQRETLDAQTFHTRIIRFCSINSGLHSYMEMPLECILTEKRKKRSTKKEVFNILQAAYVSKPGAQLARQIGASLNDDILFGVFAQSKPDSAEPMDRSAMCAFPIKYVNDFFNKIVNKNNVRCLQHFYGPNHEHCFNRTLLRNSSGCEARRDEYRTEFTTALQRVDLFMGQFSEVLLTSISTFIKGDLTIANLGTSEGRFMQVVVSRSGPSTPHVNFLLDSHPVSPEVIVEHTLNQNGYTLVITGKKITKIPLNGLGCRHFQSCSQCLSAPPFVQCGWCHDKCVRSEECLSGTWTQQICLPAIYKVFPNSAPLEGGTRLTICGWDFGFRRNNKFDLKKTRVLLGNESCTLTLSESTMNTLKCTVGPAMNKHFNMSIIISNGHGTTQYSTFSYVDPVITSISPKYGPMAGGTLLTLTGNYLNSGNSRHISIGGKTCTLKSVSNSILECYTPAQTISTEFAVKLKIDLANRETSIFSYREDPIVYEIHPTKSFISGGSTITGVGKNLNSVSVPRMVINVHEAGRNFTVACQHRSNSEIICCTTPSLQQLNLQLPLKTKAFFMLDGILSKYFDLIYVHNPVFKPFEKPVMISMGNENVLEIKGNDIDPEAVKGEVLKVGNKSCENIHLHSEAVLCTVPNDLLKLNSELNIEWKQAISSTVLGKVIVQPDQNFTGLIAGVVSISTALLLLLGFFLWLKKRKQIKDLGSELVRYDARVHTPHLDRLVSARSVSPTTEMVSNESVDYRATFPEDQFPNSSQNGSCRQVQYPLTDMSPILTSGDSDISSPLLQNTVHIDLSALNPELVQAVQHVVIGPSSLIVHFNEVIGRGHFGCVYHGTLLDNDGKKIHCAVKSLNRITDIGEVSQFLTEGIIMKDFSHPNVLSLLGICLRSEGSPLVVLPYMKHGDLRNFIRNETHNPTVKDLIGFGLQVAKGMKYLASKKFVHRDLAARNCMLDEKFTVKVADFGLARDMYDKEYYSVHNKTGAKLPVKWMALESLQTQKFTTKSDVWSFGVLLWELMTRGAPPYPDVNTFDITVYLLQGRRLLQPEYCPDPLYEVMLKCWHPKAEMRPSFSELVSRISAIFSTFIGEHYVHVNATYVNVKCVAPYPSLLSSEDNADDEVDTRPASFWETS
Method: as §3, with “Then, 10 μL of kinase detection reagent was added and after an incubation time of 40 min, luminescence was recorded and IC50 values were determined (Table 1).” left out

PC9 cells = assay: Cell viability assay, parental PC9 cells; format: cell-based; settings: Homo sapiens, PC-9; parental EGFR TKI-sensitive cells
Method: (§4) The human cell line HCC827 was purchased from the American Type Culture Collection (Manassas, VA), and the PC9 cell line was obtained from RIKEN Cell Bank (Ibaraki, Japan). […] Gefitinib-resistant cells were referred to as HCC827/GR. […] Osimertinib-resistant cells were referred to as HCC827/OR.
(§5) Cell viability assays were carried out by plating 1,000 cells per well of HCC827 or PC9 resistant cells, respectively, into white transparent-bottom 384-well plates. The cells were treated with each TKI across a 10-dose range from 1 nM to 10,000 nM. After 72 h of drug treatment, cell viability was measured using the CellTiter-Glo 2.0 assay (Promega, Madison, WI).

HCC827 cells = assay: cells; settings: Homo sapiens, HCC827, read-out: EGFR TKI IC50 in HCC827 cells
Method: as §4, §5

[1] = Table 2, EGFR TKI resistant cells, combination with EGFR TKI
[2] = Table 4, combinations of EGFR TKIs and inhibitor of Formula (I)

- IC50 (HCC827/OR cells; Table 2, 72 h drug treatment, EGFR TKI resistant cells, combination with EGFR TKI, read-out: Relative cell viability, IC50 HCC827OR): < 100 nM
- IC50 (MER; Table 1): < 100 nM
- IC50 (PC9/ER cells; Table 2, 72 h drug treatment, EGFR TKI resistant cells, combination with EGFR TKI, read-out: Relative cell viability, IC50 PC9ER): < 10000 nM
- IC50 (HCC827/GR cells; [1]): < 100 nM
- IC50 (HCC827/ER cells; [1]): < 100 nM
- IC50 (AXL; Table 1): < 10 nM
- IC50 (c-MET; Table 1): < 10 nM
Compound: CC(C)c1c(Oc2ccc(NC(=O)c3cn(C(C)C)c(=O)n(-c4ccc(F)cc4)c3=O)cc2F)ccnc1N [Example 8]

Compound: C#Cc1cccc(Nc2ncnc3cc(OCCOC)c(OCCOC)cc23)c1 [erlotinib, reference compound]
- IC50 (PC9/ER cells; Homo sapiens, PC-9/ER, read-out: EGFR TKI IC50 in PC9/ER): > 10000 nM
- higher resistance than the parental cells, PC9/ER (PC9/ER cells; PC9/ER versus parental PC9): 1,000 fold
- IC50 (PC9 cells): < 10 nM

Compound: C=CC(=O)Nc1cc(Nc2nccc(-c3cn(C)c4ccccc34)n2)c(OC)cc1N(C)CCN(C)C [osimertinib, reference compound]
- higher resistance than the parental cells, HCC827/OR (HCC827/OR cells; HCC827/OR versus parental HCC827): 3,000 fold
- IC50 (HCC827/OR cells; Homo sapiens, HCC827, read-out: EGFR TKI IC50 in HCC827/OR cells): > 1000 nM
- IC50 (HCC827 cells): < 0.3 nM

- IC50 (HCC827/OR cells; Table 4, 72 h drug treatment, combinations of EGFR TKIs and inhibitor of Formula (I), read-out: Relative cell viability, IC50 HCC827OR): < 10000 nM
- IC50 (MER; Table 3): < 10 nM
- IC50 (PC9/ER cells; Table 4, 72 h drug treatment, combinations of EGFR TKIs and inhibitor of Formula (I), read-out: Relative cell viability, IC50 PC9ER): < 1000 nM
- IC50 (HCC827/GR cells; [2]): < 1000 nM
- IC50 (HCC827/ER cells; [2]): < 1000 nM
- IC50 (AXL; Table 3): < 10 nM
- IC50 (c-MET; Table 3): < 100 nM
Compound: N-(4-(2-amino-3-(3-piperidin-4-yl)prop-1-ynyl)pyridin-4-yloxy)-3-fluorophenyl)-3-cyclohexyl-1-ethyl-2,4-dioxo-1,2,3,4-tetrahydropyrimidine-5-carboxamide [Example 65]
